The text below walks through data of a melting point compilation (Tetko et al.; mined from patent text by program, amines drawn as free bases though some values may be those of a salt).

In general, melting point refers to the temperature, or range, at which the solid turns liquid. Take `NC(=O)c1ccc(C2CCCc3cncn32)cc1` (centres undefined): the melting point lay within 181 to 183 °C.
To `CSc1ncc(C)c(=O)[nH]1` belongs 238 to 239 °C; to `O=C1C(c2ccc(O)cc2)=C(Br)c2ccc(O)cc21`, 240 °C; to `O=C1C=C(c2ccccc2)CC(C(=O)O)C1` (centres undefined), 140 to 160 °C.
To `O=C(Cl)c1ccc(C#Cc2ccccc2F)o1` belongs 96 to 98 °C; to `COCc1cc(O[C@@H]2c3ccccc3C[C@H]2O)c2nc(C)c(C)n2c1` (relative stereo), 142 to 143 °C; to `C=C(c1ccc(C(=O)O)cc1)C(O)(Cn1cncn1)c1ccc(F)cc1F` (centres undefined), 189 to 190 °C.
In turn, `COc1cc(-c2cc(C(F)(F)F)nn2-c2ccc(S(N)(=O)=O)c(F)c2)ccc1-c1cscn1` came in with a melting point of 97 to 99 °C.
As to `COC1(c2cc(O)cc(F)c2)CCOC1` (centres undefined), the melting point was 136 to 137 °C.
To `NC(=O)c1c[nH]cc1-c1cccc(Cl)c1Cl` belongs 185 to 190 °C; to `COC(F)(F)c1nc2nc(C)c(F)cc2cc1C(=O)C1C(=O)CCCC1=O`, 143 to 146 °C; to `CCCCC(OC)c1c(C(C)C)nc(C(C)C)c(CO)c1-c1ccc(F)cc1` (centres undefined), 121 to 123 °C.
In turn, `CC(C)(C)c1nnc(Oc2ccc(N)cc2)o1` registered a melting point of 80 to 81 °C.
The molecule `CC(c1oc2ccccc2c(=O)c1-c1cccc(F)c1)n1nc(-c2ccc(O)c(F)c2)c2c(N)ncnc21` (centres undefined) displayed a melting point of 244 to 247 °C.
To `COc1cc(-c2nc3ccc(OCCN4CCN(C)CC4)cc3n2Cc2ccccc2)cc(OC)c1OC` belongs 113 °C; to `O=C1CC(c2c(Cl)cccc2Cl)CN1` (centres undefined), 153 to 154 °C.
Molecule `CN(C(=O)CSc1nccc(-c2ccccn2)n1)c1ccc(Cl)cc1` gave a melting point of 142 °C.
To `Fc1cc(F)c2c(c1)CC(n1cc[nH]c1=S)CC2` (centres undefined) belongs 250 to 251 °C.
Under `Nc1ncccc1OCc1ccccc1C(F)(F)F` stands 105 to 110 °C.
`CC1(C)C=Cc2c(cc(O)c3c(=O)c4cc5ccccc5cc4[nH]c23)O1` showed a melting point of 225 °C.
Molecule `CCCN1CCN(c2nc3ccc(N=CN(C)C)cc3nc2N2CCN(CCC)CC2)CC1` returned a melting point of 95.5 to 98 °C.
To `CNc1cc(Oc2ccc3ncccc3c2)ncn1` belongs 173 °C.
Under `OC(CSC1CCCCC1)CSC1CCCCC1` stands 85.5 to 88.5 °C; under `CC(C)NCC(O)Cc1ccc([N+](=O)[O-])c(C2OCCO2)c1` (centres undefined), 97 to 99 °C; under `Cc1cc(Oc2ccc(Cl)c(C(F)(F)F)c2)ncc1N`, 105 to 107 °C.
In the case of `Cn1nc(-c2ccccc2O)oc1=O`, the melting point lay in the range of 160 to 162 °C.
In turn, `Cc1ccc2cccc(OCc3cc(N)ccc3Cl)c2n1` returned a melting point of 176 to 178 °C.
For the molecule `COC[C@@H]1CCCN1S(=O)(=O)c1ccc(Cl)c(COc2cccc3c(-n4ccnc4)cc(C)nc23)c1Cl`, the melting point came out at 66 °C.
In turn, `Nc1c2c(cc3c1CCC3)CCC2` gave a melting point of 94.5 to 96.6 °C.
To `O=Cc1cccc2c(Br)c3ccccc3cc12` belongs 134 to 136 °C; to `Nc1ccc(-c2ccc(N)c([N+](=O)[O-])c2)cc1[N+](=O)[O-]`, 275 °C; to `CC(O)(C(=O)Nc1ccc(S(=O)(=O)c2ccccc2)cc1)C(F)(F)F` (centres undefined), 164 to 166 °C.
Under `Cc1nn(-c2cncc(F)c2)cc1-c1cccc(C(F)(F)F)n1` stands 130 to 131 °C; under `CC(=NO)c1nc(N)nc(N)c1-c1ccc(Cl)cc1`, 256 to 259 °C; under `O=C(c1ccccc1)N1CCc2[nH]c3cccc(CCCO)c3c2CC1`, 144 to 147 °C.
To `c1ccc2c(c1)OC(c1ccc(OCCN3CCCCC3)cc1)c1c-2sc2ccccc12` (centres undefined) belongs 107 °C; to `CCCCCCC1C(=O)NC(C(=O)SCCNC(C)=O)(C(O)C2C=CCCC2)C1(C)O` (centres undefined), 82 °C.
In turn, `COC(=O)c1cc2c([N+](=O)[O-])csc2nc1C1=NC(C)(C(C)C)C(=O)N1` (centres undefined) showed a melting point of 201 to 202 °C.
Take `COc1ccc(Oc2ccc(C(=O)N(C3CCCC3)C3CCCC3)cc2)cc1OC`: the melting point worked out at 180 °C.
To `COc1ccc2c(c1OC)CC(c1ccccc1)C=C2C#N` (centres undefined) belongs 109 to 110 °C.
With `OC1(C#Cc2ccc(Br)cn2)CN2CCC1CC2` (centres undefined), the melting point was in the range of 194 to 198 °C.
On to `O=C1CCCC12CCOc1ccc(F)cc12` (centres undefined), for which the melting point was 49 to 51 °C.
In turn, `NC(=O)c1cccc(Oc2ccccc2)c1` displayed a melting point of 127 to 128 °C.
Under `Cc1ccc(Cn2cc(C(=O)C(=O)NC3=CC(=O)OC3)c3ccc(F)cc32)cc1` stands 218 to 220 °C; under `CC(=O)NCC=C1CCc2ccc3nc(C)sc3c21`, 184 to 186 °C; under `CC(CO)NC(=O)NCCCCC1CCSS1` (centres undefined), 87 to 89 °C.
Under `COc1cc2c(cc1OC)CN(CC(O)CN1CCC(c3noc4cc(F)ccc34)CC1)CC2` (centres undefined) stands 153 to 154 °C; under `COc1ccc(-c2nc(N)ncc2-c2ccc(=O)n(C)n2)cc1`, 259 °C; under `COc1ccc(S(=O)(=O)N(CCC(=O)N2CCC(C(=O)O)CC2)C(CC(C)C)C(=O)NO)cc1` (centres undefined), 118 to 120 °C.
In turn, `NC1=C(N=O)C(=O)N2CCN=C2N1Cc1ccc(Cl)cc1` came in with a melting point of 238 to 241 °C.
As to `Cc1cc2c3c(ccn2n1)CCC3CCNC(=O)C1CC1` (centres undefined), the melting point lay in the range of 112 to 113 °C.
Under `CNS(=O)(=O)c1cc(S(=O)(=O)Cl)c(Cl)cc1N` stands 153 to 155 °C; under `CC#CCOc1ccc(S(=O)(=O)N(C)C(C(=O)NO)C(C)(C)SCCN2CCCC2)cc1` (centres undefined), 55 to 57 °C.
`COc1ccc(C(=O)Nc2cccc3[nH]ccc23)c(O)c1`: the melting point turned out to be 190 °C.
`CC(=O)SCC(Cc1ccc(C)cc1)C(=O)Nc1cccc(C(=O)O)c1` (centres undefined): the melting point was in the range of 174 to 175 °C.
To `NP(N)(=O)NC(=O)c1cccnc1` belongs 280 to 283 °C; to `C[C@]1(COc2ccc(N3CCC(Nc4ccc(Cl)c(Cl)c4)CC3)cc2)Cn2cc([N+](=O)[O-])nc2O1`, 146 to 147 °C.
Under `Oc1ccc(-c2ncn(CC(O)(Cn3cncn3)c3ccc(F)cc3F)n2)cc1` (centres undefined) stands 120 to 127 °C; under `O=C(OC1CCCCC1)C1=C(c2ccccc2)C(c2ccccc2)OC1=O` (centres undefined), 139 to 142 °C.
Under `Cn1c(-c2ccccc2)c(CCC(=O)O)c2ccccc2c1=O` stands 138 to 140 °C.
`c1ccc(COc2cncc(N3CCNCC3)n2)cc1` showed a melting point of 155 to 156 °C.
To `COc1ccc(Br)cc1C(=O)C(Br)C(Br)c1cccc(Br)c1` (centres undefined) belongs 124 to 126 °C; to `COc1cc(C)nc(-c2ccc(CBr)cc2)n1`, 98 to 99 °C; to `Clc1ccc(Oc2cncc3sc(-c4ccco4)cc23)cc1`, 75 to 77 °C.
As for `O=C(N=c1sc2cc(OC(F)(F)F)ccc2n1CCN1CCN(c2ccccn2)CC1)C(F)(F)F`, the melting point came to 132 °C.
Consider `CCOC(=O)c1cn2c3c(c(-c4ccc(S(N)(=O)=O)cc4)c(F)cc3c1=O)OCC2C` (centres undefined), for which the melting point is > 250 °C.
`COC1CCN(c2c(F)cc3c(=O)c(C(=O)O)cn4c3c2CCC4C)CC1` (centres undefined) returned a melting point of 249 to 251 °C.
Under `O=C(O)CCC(NC(=O)c1cccc(-c2ccccc2OC2OC(CO)C(O)C(O)C2O)c1)C(=O)O` (centres undefined) stands 109 to 112 °C; under `Cc1nc(-c2ccc(OCC(C)C)c([N+](=O)[O-])c2)sc1C(=O)OCC(C)C`, 112 to 113 °C.
To `CCOc1ccc(C(=O)N2CCNC2=Nc2c(Cl)cccc2Cl)cc1` belongs 146 to 148 °C; to `CC(=O)OCc1c(C(=O)C(=O)O)c2cc(OCc3ccccc3)ccc2n1Cc1ccc(C(C)(C)C)cc1`, 145 to 146 °C; to `NS(=O)(=O)c1cccc(-c2cccc(-c3nc(-c4ccc(Cl)c(Cl)c4)cc(C(F)(F)F)n3)c2)c1`, 241 °C.
To `CC(=O)N1CC2OC(C3OCCO3)(C1)c1ccccc12` (centres undefined) belongs 122 to 123 °C; to `O=c1[nH]c2ccccc2n1CCCN1CC=C(n2c(=O)[nH]c3ccccc32)CC1`, 207 °C; to `CC(c1oc2ccc(F)cc2c(=O)c1-c1ccccc1F)n1cnc2c(N)ncnc21` (centres undefined), 245 to 248 °C.
`O=C(NC(=O)c1c(Cl)cccc1Cl)Nc1ccc(-c2ccc(Cl)cc2)cn1` gave a melting point of 230 to 233 °C.
To `CCCCCCNC1=CC(=O)c2c(OC)ccc(OC)c2C1=O` belongs 83 to 84 °C.
For the molecule `O=C(O)CCc1cn(-c2cccnc2)c2ccccc12`, the melting point lay in the range of 147 to 149 °C.
Under `CC1(C)OC(=S)Nc2ccc(-c3cccc([N+](=O)[O-])c3)cc21` stands 224 to 226 °C.
To `COc1ccc(C2c3ccccc3C(c3ccccc3)C2C(=O)O)cc1` (centres undefined) belongs 164 to 166 °C; to `CC(C)Oc1ncnc2c(O)ccc(Cl)c12`, 126 °C.
`COC(=O)CCCCCCCCCCCCCCCCCCCCCN1C(=O)c2ccccc2C1=O`: the melting point fell in the range of 88.5 to 90.5 °C.
With `O=C(O)Cc1c(-c2cccs2)nn(-c2ccccc2)c1-c1cccs1`, the melting point lay within 216 to 218 °C.
As to `COc1ccc2c(c1OCc1ccccc1)CC(C(=O)O)N(C(=O)N(C)c1ccccc1)C2` (racemic), the melting point lay in the range of 134 to 136 °C.
The molecule `Cn1cncc1C(O)(c1ccc(Cl)cc1)c1ccc2c(c1)C(c1cccc(Cl)c1)SCC(=O)N2` (centres undefined) displayed a melting point of 210 °C.
As to `NC(=O)NCC1CCCc2cc(NS(=O)(=O)c3cccc(F)c3)ccc21` (centres undefined), the melting point was 162 to 163 °C.
In turn, `O=C1c2ccc(C#Cc3cccc4ccccc34)cc2C(=O)N1c1ccccc1` registered a melting point of 176 to 178 °C.
`CCOC(=O)c1cc(CC)sc1Nc1ccc(F)cc1N` returned a melting point of 82 to 84 °C.
With `CCCCc1ncc(CNC(Cc2ccccc2)C(=O)O)n1Cc1ccccc1Cl` (centres undefined), the melting point fell in the range of 141 to 143 °C.
